Reference: patent publication US20240336629A1, “Tricyclic Derivatives Useful As PARP7 Inhibitors” (JACOBIO PHARMACEUTICALS CO., LTD., priority 2021, published 2024)
Read-outs that look alike come from different tables or passages of the source.

Tests used:
[1] = Mouse pharmacokinetic study; type: in vivo; settings: Balb/c mouse; for clearance / Vd: iv; for Vd: read-out: Vss; for bioavailability: read-out: Oral BA (F %)
[2] = tested on: lung cancer cell line H1373 (high expression of PARP7); assay: Lung cancer cell proliferation inhibition experiment (CTG method); type: cell-based; settings: H1373 cells, 144 hrs incubation, Cell Titer Glo
PARP7 enzyme = PARP7 enzyme (Homo sapiens (Human), UniProt Q7Z3E1); assay: PARP7 enzymatic experiment (HTRF assay); type: biochemical; settings: 4PL fit
[3] = plasma, po, 100 mg/kg p.o. vs 3 mg/kg i.v.
[4] = plasma, po, single 100 mg/kg, p.o., read-out: Cmax
[5] = plasma, oral, 100 mg/kg p.o. vs 3 mg/kg i.v.

Chain of PARP7 enzyme (Q7Z3E1 456-657): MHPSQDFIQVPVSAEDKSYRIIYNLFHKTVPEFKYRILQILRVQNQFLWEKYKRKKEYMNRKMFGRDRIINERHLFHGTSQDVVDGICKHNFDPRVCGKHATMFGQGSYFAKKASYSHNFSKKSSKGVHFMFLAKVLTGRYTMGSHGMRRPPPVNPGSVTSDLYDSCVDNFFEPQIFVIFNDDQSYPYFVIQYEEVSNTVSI

| Compound | pharmacokinetic properties (in words) [1] | IC50 ([2]; Homo sapiens, NCI-H1373, 144 h) [µM] | IC50 (PARP7 enzyme) [µM] | clearance ([1]; plasma, single 3 mg/kg) [mL/min/kg] | Vd ([1]; plasma, single 3 mg/kg, i.v.) [L/kg] | AUC(0-t) ([1]; plasma, po, single 100 mg/kg) [ng·h/mL] | Cmax [1, 4] [ng/mL] | further results |
| --- | --- | --- | --- | --- | --- | --- | --- | --- |
| C[C@@H](COCCC(=O)N1CCN2c3ncc(Cl)cc3N(C)C(=O)[C@@H]2C1)Nc1cn[nH]c(=O)c1C(F)(F)F (single isomer, unassigned) [Compound 20A] | good pharmacokinetic properties | 0.0539 | 0.00151 |  |  |  |  |  |
| CC(C)N1C(=O)[C@@H]2CN(C(=O)CCOC[C@H](C)Nc3cn[nH]c(=O)c3C(F)(F)F)CCN2c2ncc(C(F)(F)F)cc21 (single isomer, unassigned) [Compound 24A] | good pharmacokinetic properties |  | 0.00207 |  |  |  |  |  |
| C[C@@H](COCCC(=O)N1CCN2c3ncc(C(F)(F)F)cc3SCC[C@@H]2C1)Nc1cn[nH]c(=O)c1C(F)(F)F (single isomer, unassigned) [Compound 71A] | good pharmacokinetic properties |  | 0.00153 |  |  |  |  | IC50 [2]: 0.0139 µM |
| CCN1c2ncc(Cl)cc2OCC[C@@H]1CNC(=O)CCOC[C@@H](C)Oc1cn[nH]c(=O)c1C(F)(F)F (single isomer, unassigned) [Compound 84A] |  |  | 0.00101 |  |  |  |  | Oral BA (F %) ([1]; 100 mg/kg p.o. vs 3 mg/kg i.v.): 106%; CL ([1]; single 3 mg/kg, i.v.): 41 mL/min/kg; Vss ([1]; single 3 mg/kg, i.v.): 0.5 L/kg; AUClast ([1]; single 100 mg/kg, p.o.): 43382 ng·h/mL; Cmax ([1]; single 100 mg/kg, p.o.): 15033 ng/mL; IC50 [2]: 0.0215 µM |
| Cc1c(Cl)cnc2c1OCC[C@@H]1CN(C(=O)CCOC[C@H](C)Oc3cn[nH]c(=O)c3C(F)(F)F)CCN21 (single isomer, unassigned) [Compound 85A] |  | 0.0207 |  | 60 | 0.5 | 86100 | 24200 | bioavailability [1, 3]: 301% |
| C[C@@H](COCCC(=O)N1CCN2c3nc(F)c(Cl)cc3N(C)C(=O)[C@@H]2C1)Nc1cn[nH]c(=O)c1C(F)(F)F [Compound 14A] | good pharmacokinetic properties |  | 0.0106 |  |  |  |  |  |
| Cc1c2n(c3ncc(C(F)(F)F)cc13)CCN(C(=O)CCOC[C@H](C)Oc1cn[nH]c(=O)c1C(F)(F)F)C2 [Compound 45] | good pharmacokinetic properties | 0.013 |  |  |  |  |  |  |
| C[C@@H](COCCC(=O)N1CCn2c(cc3cc(C(F)(F)F)cnc32)C1)Oc1cn[nH]c(=O)c1C(F)(F)F [Compound 47A] |  | 0.0609 |  | 16 | 0.5 | 95200 | 41100 | bioavailability [1, 5]: 90% |
| C[C@@H](COCCC(=O)N1CCN2c3ncc(C(F)(F)F)cc3OC[C@@H]2C1)Oc1cn[nH]c(=O)c1C(F)(F)F [Compound 51] |  |  |  | 22 | 0.5 | 91400 | 38200 | bioavailability [1, 5]: 121%; IC50 ([2]; Homo sapiens, NCI-H1373): 0.0346 µM |
| C[C@H](COCCC(=O)N1CCN2c3ncc(Cl)cc3N(C)C(=O)[C@@H]2C1)Nc1cn[nH]c(=O)c1C(F)(F)F [Compound 82A] |  | 0.0475 | 0.000744 | 32 | 0.4 | 26400 | 21700 | bioavailability [1, 3]: 48% |
| C[C@@H](COCCC(=O)N1CCN2c3ncc(C(F)(F)F)cc3SCC[C@@H]2C1)Oc1cn[nH]c(=O)c1C(F)(F)F [Compound 86A] |  | 0.0119 | 0.0025 | 54 | 1.4 | 20300 | 7860 | bioavailability [1, 3]: 66% |
| Cc1c2n(c3ncc(C(F)(F)F)cc13)CCN(C(=O)CCOC[C@@H]1CCN1c1cn[nH]c(=O)c1C(F)(F)F)C2 [Compound 92] |  | 0.00802 | 0.000686 |  |  |  |  |  |
| O=C(CCOC[C@@H]1CCN1c1cn[nH]c(=O)c1C(F)(F)F)N1CCN2c3ncc(C(F)(F)F)cc3C(F)(F)C[C@@H]2C1 [Compound 93A] |  | 0.0156 | 0.00282 |  |  |  |  |  |
| O=C(CCOC[C@@H]1CCN1c1cn[nH]c(=O)c1C(F)(F)F)N1CCN2c3ncc(C(F)(F)F)cc3C(F)(F)C[C@H]2C1 [Compound 93B] |  | 0.0104 | 0.00209 |  |  |  |  |  |
| CC(OCCC(=O)N1CCN2c3ncc(C(F)(F)F)cc3N(C)C(=O)C2C1)[C@@H]1CCN1c1cn[nH]c(=O)c1C(F)(F)F (some centres unmarked) [Compound 96] |  |  | 0.00327 |  |  |  |  | IC50 [2]: 0.0221 µM |
